In assay [1] the test system is RS4; 11 leukaemia cell line. Description: In vitro cytotoxicity, Microculture Tetrazolium Assay (MTT). Conditions: 11 cells exposed for 48 hours. The class given is cell-based. As to the method: The cytotoxicity studies were carried out on the RS4; 11 leukaemia cell line and on H146 small Cell Lung Carcinoma cell line. The cells are distributed onto microplates and exposed to the test compounds for 48 hours. The cell viability is then quantified by a colorimetric assay, the Microculture Tetrazolium Assay (Cancer Res., 1987, 47, 939-942).

Another assay has as its target Bcl-2 protein (histag-Bcl-2, UniProtKB P10415) (Homo sapiens (Human), UniProt P10415). Briefly: Inhibition of Bcl-2 by the fluorescence polarisation technique. The class given is binding. Conditions: fluorescence polarisation test; incubation for 2 hours; read-out: IC50 (nM) Bcl-2 FP. The source says:
For partial inhibitors, the percentage fluorescence polarisation inhibition for a given concentration of the test compound is indicated.
For orientation: In fluorescence polarisation assays a small probe gives low polarisation when free and higher when bound to something large.

Sequence of Bcl-2 protein (P10415 whole entry): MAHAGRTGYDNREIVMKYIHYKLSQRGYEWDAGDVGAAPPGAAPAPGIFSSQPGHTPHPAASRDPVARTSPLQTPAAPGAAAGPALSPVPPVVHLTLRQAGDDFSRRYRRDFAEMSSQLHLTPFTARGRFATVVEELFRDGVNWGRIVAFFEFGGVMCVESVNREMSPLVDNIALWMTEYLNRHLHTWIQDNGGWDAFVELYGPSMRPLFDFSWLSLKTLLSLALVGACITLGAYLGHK

In the case of `C[C@@H]1Cc2ccccc2CN1C(=O)c1cc2c(cc1-c1cc(C(=O)N(C)c3ccc(O)cc3)c3n1CCCC3)CCN(S(=O)(=O)c1ccc3ccccc3c1)C2` [Example 41, N-(4-Hydroxyphenyl)-N-methyl-3-{7-[(3R)-3-methyl-1,2,3,4-tetrahydroisoquinoline-2-carbonyl]-2-(naphthalene-2-sulfonyl)-1,2,3,4-tetrahydroisoquinolin-6-yl}-5,6,7,8-tetrahydroindolizine-1-carboxamide], the IC50 – broadly, the concentration needed to halve the response being measured – worked out at 78 nM in assay [1] (Homo sapiens) and 26 nM on Bcl-2 protein.

As for `Cc1c(C(=O)N(C)c2ccc(O)cc2)cc(-c2cc3c(cc2C(=O)N2Cc4ccccc4C[C@H]2C)CN(C(=O)OC2CCC(NC(=O)OC(C)(C)C)CC2)CC3)n1C` (stereo partly drawn) [Example 800, (1r,4r)-4-{[(tert-Butoxy)carbonyl]amino}cyclohexyl 6-{4-[(4-hydroxyphenyl)(methyl)carbamoyl]-1,5-dimethyl-1H-pyrrol-2-yl}-7-[(3R)-3-methyl-1,2,3,4-tetrahydroisoquinoline-2-carbonyl]-1,2,3,4-tetrahydroisoquinoline-2-carboxylate], the IC50 in assay [1] was determined as 3.2 nM; at Bcl-2 protein it was 2 nM.

On to `Cc1c(C(=O)N(C)c2ccccc2)cc(-c2cc3c(cc2C(=O)N2Cc4ccccc4C[C@H]2C)CN(C(=O)Oc2ccc4[nH]ccc4c2)CC3)n1C` [Example 789, 1H-Indol-5-yl 6-{1,5-dimethyl-4-[methyl(phenyl)carbamoyl]-1H-pyrrol-2-yl}-7-[(3R)-3-methyl-1,2,3,4-tetrahydroisoquinoline-2-carbonyl]-1,2,3,4-tetrahydroisoquinoline-2-carboxylate], for which the 50% inhibitory concentration (IC50) in assay [1] (Homo sapiens) was 14 nM; on Bcl-2 protein, 8.9 nM.

As to `CN(C(=O)c1cc(-c2cc3c(cc2C(=O)N2Cc4ccccc4C[C@H]2CN2CCOCC2)CN(C(=O)Cc2ccccc2)CC3)n2c1CCCC2)c1ccc(O)cc1` [Example 70, N-(4-Hydroxyphenyl)-N-methyl-3-{7-[(3S)-3-(morpholin-4-ylmethyl)-1,2,3,4-tetrahydroisoquinoline-2-carbonyl]-2-(2-phenylacetyl)-1,2,3,4-tetrahydroisoquinolin-6-yl}-5,6,7,8-tetrahydroindolizine-1-carboxamide], the IC50 amounted to 9.8 nM in assay [1] (Homo sapiens) and 5.1 nM on Bcl-2 protein.

Take `C[C@@H]1Cc2ccccc2CN1C(=O)c1cc2c(cc1-c1cc(C(=O)N(C)c3ccc(O)cc3)c3n1CCCC3)CN(C(=O)OC(C)(C)C)C2` [Example 13, tert-Butyl 5-{1-[(4-hydroxyphenyl)(methyl)carbamoyl]-5,6,7,8-tetrahydroindolizin-3-yl}-6-[(3R)-3-methyl-1,2,3,4-tetrahydroisoquinoline-2-carbonyl]-2,3-dihydro-1H-isoindole-2-carboxylate]: the IC50 is 729 nM in assay [1] (Homo sapiens) and 108 nM on Bcl-2 protein.

For the compound `Cc1ccc(OC(=O)N2CCc3cc(-c4cc(C(=O)N(C)c5ccc(O)cc5)c(C)n4C)c(C(=O)N4Cc5ccccc5C[C@H]4CN4CCOCC4)cc3C2)cc1` [Example 139, 4-Methylphenyl 6-{4-[(4-hydroxyphenyl)(methyl)carbamoyl]-1,5-dimethyl-1H-pyrrol-2-yl}-7-[(3S)-3-(morpholin-4-ylmethyl)-1,2,3,4-tetrahydroisoquinoline-2-carbonyl]-1,2,3,4-tetrahydroisoquinoline-2-carboxylate], the IC50 in assay [1] (Homo sapiens) turned out to be 0.84 nM; on Bcl-2 protein it was 5.1 nM.

Turning to `C[C@@H]1Cc2ccccc2CN1C(=O)c1cc2c(cc1-c1cc(C(=O)N(C)c3ccc(O)cc3)c3n1CCCC3)CCN(C(=O)CCc1ccc(NCCN(C)C)cc1)C2` [Example 138, 3-{2-[3-(4-{[2-(Dimethylamino)ethyl]amino}phenyl)propanoyl]-7-[(3R)-3-methyl-1,2,3,4-tetrahydroisoquinoline-2-carbonyl]-1,2,3,4-tetrahydroisoquinolin-6-yl}-N-(4-hydroxyphenyl)-N-methyl-5,6,7,8-tetrahydroindolizine-1-carboxamide], the IC50 in assay [1] (Homo sapiens) worked out at 114 nM; on Bcl-2 protein, 12 nM.

`Cc1c(C(=O)N(C)c2ccc(O)cc2)cc(-c2cc3c(cc2C(=O)N2Cc4ccccc4C[C@H]2C)CN(C(=O)Oc2ccc(N(C)CCN(C)C)cc2)CC3)n1C` [Example 474, 4-{[2-(Dimethylamino)ethyl](methyl)amino}phenyl 6-{4-[(4-hydroxyphenyl)(methyl)carbamoyl]-1,5-dimethyl-1H-pyrrol-2-yl}-7-[(3R)-3-methyl-1,2,3,4-tetrahydroisoquinoline-2-carbonyl]-1,2,3,4-tetrahydroisoquinoline-2-carboxylate]: the IC50 in assay [1] (Homo sapiens) came to 2.6 nM; at Bcl-2 protein, 4.5 nM.

As for `Cc1c(C(=O)N(C)c2ccc(O)cc2)cc(-c2cc3c(cc2C(=O)N2Cc4ccccc4C[C@H]2C)CN(C(=O)Oc2ccc(Cl)cc2)C3)n1C` [Example 105, 4-Chlorophenyl 5-{4-[(4-hydroxyphenyl)(methyl)carbamoyl]-1,5-dimethyl-1H-pyrrol-2-yl}-6-[(3R)-3-methyl-1,2,3,4-tetrahydroisoquinoline-2-carbonyl]-2,3-dihydro-1H-isoindole-2-carboxylate], the IC50 was 31 nM in assay [1] (Homo sapiens) and 7.3 nM on Bcl-2 protein.

For the compound `C[C@@H]1Cc2ccccc2CN1C(=O)c1cc2c(cc1-c1cc(C(=O)N(C)c3ccc(O)cc3)c3n1CCCC3)CCN(C(=O)Cc1ccc(OCCN(C)C)cc1)C2` [Example 154, 3-[2-(2-{4-[2-(Dimethylamino)ethoxy]phenyl}acetyl)-7-[(3R)-3-methyl-1,2,3,4-tetrahydroisoquinoline-2-carbonyl]-1,2,3,4-tetrahydroisoquinolin-6-yl]-N-(4-hydroxyphenyl)-N-methyl-5,6,7,8-tetrahydroindolizine-1-carboxamide], the IC50 in assay [1] (Homo sapiens) is 5.9 nM; on Bcl-2 protein it was 3.9 nM.

For the compound `CN(C(=O)c1cc(-c2cc3c(cc2C(=O)N2Cc4ccccc4C[C@H]2CN2CCOCC2)CN(C(=O)OC(C)(C)C)C3)n2c1CCCC2)c1ccc(O)cc1` [Example 6, tert-Butyl 5-{1-[(4-hydroxyphenyl)(methyl)carbamoyl]-5,6,7,8-tetrahydroindolizin-3-yl}-6-[(3S)-3-(morpholin-4-ylmethyl)-1,2,3,4-tetrahydroisoquinoline-2-carbonyl]-2,3-dihydro-1H-isoindole-2-carboxylate], the IC50 in assay [1] (Homo sapiens) was more than 1880 nM; on Bcl-2 protein, 95 nM.

For `Cc1c(C(=O)N(C)c2ccc(O)cc2)cc(-c2cc3c(cc2C(=O)N2Cc4ccccc4C[C@H]2C)CN(C(=O)Oc2ccc(F)cc2)C3)n1C` [Example 106, 4-Fluorophenyl 5-{4-[(4-hydroxyphenyl)(methyl)carbamoyl]-1,5-dimethyl-1H-pyrrol-2-yl}-6-[(3R)-3-methyl-1,2,3,4-tetrahydroisoquinoline-2-carbonyl]-2,3-dihydro-1H-isoindole-2-carboxylate], the IC50 came out at 38 nM in assay [1] (Homo sapiens) and 5.3 nM at Bcl-2 protein.

Consider `C[C@@H]1Cc2ccccc2CN1C(=O)c1cc2c(cc1-c1cc(C(=O)N(C)c3ccc(O)cc3)c3n1CCCC3)CN(C(=O)CCC1CCCCC1)C2` [Example 32, 3-[2-(3-Cyclohexylpropanoyl)-6-[(3R)-3-methyl-1,2,3,4-tetrahydroisoquinoline-2-carbonyl]-2,3-dihydro-1H-isoindol-5-yl]-N-(4-hydroxyphenyl)-N-methyl-5,6,7,8-tetrahydroindolizine-1-carboxamide], for which the IC50 came out at 141 nM in assay [1] (Homo sapiens) and 47 nM at Bcl-2 protein.

`Cc1c(C(=O)N(C)c2ccc(O)cc2)cc(-c2cc3c(cc2C(=O)N2Cc4ccccc4C[C@H]2C)CN(C(=O)OC2CCC(N(C)C)CC2)CC3)n1C` (stereo partly drawn) [Example 802, (1r,4r)-4-(Dimethylamino)cyclohexyl 6-{4-[(4-hydroxyphenyl)(methyl)carbamoyl]-1,5-dimethyl-1H-pyrrol-2-yl}-7-[(3R)-3-methyl-1,2,3,4-tetrahydroisoquinoline-2-carbonyl]-1,2,3,4-tetrahydroisoquinoline-2-carboxylate]: the IC50 came to 99 nM in assay [1] and 4 nM at Bcl-2 protein.

`CN(C(=O)c1cc(-c2cc3c(cc2C(=O)N2Cc4ccccc4C[C@H]2CN2CCOCC2)CN(S(=O)(=O)Cc2ccccc2)CC3)n2c1CCCC2)c1ccc(O)cc1` [Example 4, N-(4-Hydroxyphenyl)-N-methyl-3-{7-[(3S)-3-(morpholin-4-ylmethyl)-1,2,3,4-tetrahydroisoquinoline-2-carbonyl]-2-phenylmethanesulfonyl-1,2,3,4-tetrahydroisoquinolin-6-yl}-5,6,7,8-tetrahydroindolizine-1-carboxamide]: the IC50 in assay [1] (Homo sapiens) stood at 71 nM; at Bcl-2 protein it was 9.2 nM.

For `C[C@@H]1Cc2ccccc2CN1C(=O)c1cc2c(cc1-c1cc(C(=O)N(C)c3ccc(O)cc3)c3n1CCCC3)CCN(C(=O)Oc1ccc(NCCN(C)C)cc1)C2` [Example 153, 4-{[2-(Dimethylamino)ethyl]amino}phenyl 6-{1-[(4-hydroxyphenyl)(methyl)carbamoyl]-5,6,7,8-tetrahydroindolizin-3-yl}-7-[(3R)-3-methyl-1,2,3,4-tetrahydroisoquinoline-2-carbonyl]-1,2,3,4-tetrahydroisoquinoline-2-carboxylate], the IC50 in assay [1] (Homo sapiens) worked out at 3.6 nM; at Bcl-2 protein, 4.2 nM.

As to `Cc1c(C(=O)N(C)c2ccccc2)cc(-c2cc3c(cc2C(=O)N2Cc4ccccc4C[C@H]2CN2CCOCC2)CN(C(=O)Oc2ccc4cc[nH]c4c2)CC3)n1C` [Example 629, 1H-Indol-6-yl 6-{1,5-dimethyl-4-[methyl(phenyl)carbamoyl]-1H-pyrrol-2-yl}-7-[(3S)-3-(morpholin-4-ylmethyl)-1,2,3,4-tetrahydroisoquinoline-2-carbonyl]-1,2,3,4-tetrahydroisoquinoline-2-carboxylate], the IC50 in assay [1] (Homo sapiens) was 9 nM; on Bcl-2 protein it was 7.2 nM.

The values are drawn from patent US9809574B2, “Isoindoline or isoquinoline compounds, a process for their preparation and pharmaceutical compositions containing them” (LES LABORATOIRES SERVIER, priority 2013, dated 2017).
